Test results reported in patent US8557864B2, “Agent having neurotrophic factor-like activity” (Nagoya Industrial Science Research Institute, priority 2007, dated 2013).

Key:
[1] = test system: MAP kinases; assay: Measurement of activation of MAP kinases in cultured nerve cells (western immunoblotting); assay type: cell-based; details: fetal rat cerebral cortex nerve cells, compound 500 μg/ml, 30 minutes, relative to control
Procedure: Activation of MAP kinases was measured on respective compounds in Table 1 including the compound obtained in Production Example with western immunoblotting as follows. Nerve cells were dispersed from a cerebral cortex of a 17-day-old fetal rat and the nerve cells were cultured in a Dulbecco's modified eagle medium (DMEM) containing 5%; fetal bovine serum for 1 day. A culture solution was exchanged to a serum-free medium (B27 supplement added Neurobasal, Invitrogen Corporation), and the nerve cells were cultured in a culture petri dish coated with polyornithine at a density of 20,000 to 40,000 cells/cm^2. Three days later, each of the compounds in Table 1 was added thereto, and culture for 30 minutes was continued. Then, cells were recovered on ice with a solution of a Tris-HCL buffer as a base containing a phosphatase inhibitor. The protein concentration of the obtained cell extraction was determined using a BCA Protein Assay Kit (TAKARABIO INC.), a constant amount (3 μg for MAP kinase measurement, 5 μg for phosphorylated MAP kinase measurement) of the protein was electrophoresed with a polyacrylic amide gel. The protein was transcribed to a PVDF membrane from the gel after electrophoresis, and western immunoblotting was carried out using the primary antibodies: an anti-MAP kinase antibody (Cell Signaling Technology, Inc.) and an antiphosphorylated MAP kinase antibody (Cell Signaling Technology, Inc.), respectively. Subsequently, an enzyme activity was subjected to color development by being reacted with the secondary antibody: an alkaline phosphatase labeled anti-rabbit IgG antibody (Promega KK) to measure MAP kinases and phosphorylated MAP kinases. In addition, each compound was dissolved in 0.7% DMSO and adjusted to have a concentration of 500 μg/ml. A control was added with a phosphoric acid buffer containing 0.1% DMSO in the same amount as the compound.
The above obtained concentration measurement of the electrophoresis gel band was digitalized by calculating an intensity with Image J (BioArts International, Inc.). The numerical value of MAP kinases of each compound was divided by the numerical value of the control's MAP kinases, and the numerical value of phosphorylated MAP kinases of each compound was divided by the numerical value of the control's phosphorylated MAP kinases to find a ratio of the MAP kinases of each compound to the control and a ratio of the phosphorylated MAP kinases of the each compound to the control. Then, the obtained ratio of the phosphorylated MAP kinases to the control was divided by the obtained ratio of the MAP kinases to the control to find a ratio of the phosphorylated MAP kinases to the MAP kinases and graphs were formed and shown in FIGS. 1 to 3. Compound 1, compound 6, compound 11, compound 16, compound 21 and compound 36 in Table 1 were used from products made by Wako Pure Chemical Industries, Ltd.

[2] = Measurement of weights of mice before and after stress; assay type: in vivo; details: 3 weeks with stress
Text: A weight of a mouse before stress was subtracted from the weight of the mouse immediately after administering the compound 8 as well as stress for 3 weeks to obtain a weight gap (g).

[3] = test system: mice; assay: Voluntary alternation behavior test (Y-maze test) of mice administered with trimethyltin; assay type: in vivo
Procedure: The voluntary alternation behavior test (Y-maze test) is one kind of a behavior test using a Y-shaped maze constituted with three arms. First, a mouse is placed on the tip of one arm out of the three arms, letting the mouse freely explore in the maze over 8 minutes, and arms where the mouse transferred are recorded in order. Then, the number of times of transferring to each arm (total arm selection number (total arm entries)) and the number of sequentially selecting three different arms (number of alternation behavior (number of spontaneous behavior)) are counted.
Trimethyltin (hereinafter referred to as “TMT”) is an organic metal compound having neurotoxicity, and acute nerve cell death is cased particularly in granular nerve cells of the hippocampus dentate gyrus, which thus affects memory and learning abilities of a mouse.
The voluntary alternation tests (Y-maze tests) were performed on 1) test groups to which the compound 8 was singly administered and 2) test groups to which TMT and the compound 8 were administered. In the test groups to which the compound 8 was singly administered, the compound 8 was dissolved in 0.1% DMSO to adjust a concentration so as to have each of the doses of 100 and 500 μg/kg and intraperitoneally injected to 6 mice in every administration example each in a dose of 0.25 mL. In 0 μg/kg weight administration examples of controls, 0.25 mL of a phosphoric acid buffer containing 0.1% DMSO was intraperitoneally injected in each time. The voluntary alternation tests (Y-maze tests) were performed on each of the administration groups after the elapse of 2 hours from intraperitoneal administration. In the test group in which TMT and the compound 8 were administered, TMT (2 mg/kg weight) was intraperitoneally administered to a mouse, and the compound 8 was intraperitoneally administered in the same manner as the test groups in which the compound 8 was singly administered after 2 days have passed, and the voluntary alternation test (Y-maze test) was performed after the elapse of 2 hours. FIG. 32 show the results. Significance tests were performed in a Turkey's test (*, ##) and a Student's t-test (++). “DAEE” denotes the compound 8.

CCCCCCC/C=C/C(=O)OCC [Compound 8, trans-2-decenoic acid ethyl ester]
ratio of phosphorylated MAP kinases to MAP kinases [1]: twice or more | ratio of phosphorylated MAP kinases to MAP kinases ([1]; listed as trans-2-decenic acid ethyl ester): 11 times | weight gap, stressed vs non-stressed example ([2]; 500 μg/kg administration group): no significant difference | ratio of weight decrease in stressed examples compared to control (PBS) ([2]; compound 8 administration groups): less | total arm entries (motor function) ([3]; 100 and 500 μg/kg intraperitoneally, 2 hours before test, with or without TMT): no difference | voluntary alternation behavior, compound singly administered ([3]; 100 and 500 μg/kg intraperitoneally, test after 2 hours): significantly increased | voluntary alternation behavior in TMT-treated mice ([3]; TMT 2 mg/kg intraperitoneally, compound 8 after 2 days, test after 2 hours): suppressed decrease
